# According to ChEMBL document CHEMBL3046344, “Phytochemical based strategies for nematode control” (2002):
# Numbered stars: 1 amine (or outer) side, 2 acyl side, 3 side chain; on linkers, the order of the positions; unused ones are H or OH. Bridge positions count the residues as written; N and C are the ends. Square brackets hold non-standard residues; d marks the D form. Peptide text beside a SMILES is read from it. NMeW = CN[C@@H](Cc1c[nH]c2ccccc12)C(=O)O; X1 = CC(C)[C@@H](C(=O)[*:1])N(C)O[*:2]; NMeI = CC[C@H](C)[C@H](NC)C(=O)O; NMeV = CN[C@H](C(=O)O)C(C)C; Sar = CNCC(=O)O
# Tests used:
# Assay type in all cases: functional
# Meloidogyne incognita [1] = assay: Nematocidal activity against Meloidogyne incognita (root-knot nematode) assessed as mortality at 10 ug/ml
# Caenorhabditis elegans [2] = assay: Nematocidal activity against Caenorhabditis elegans assessed as mortality at 50 ug/ml
# Panagrellus redivivus [3] = assay: Nematocidal activity against Panagrellus redivivus assessed as mortality at 12.5 ug/ml
# Caenorhabditis elegans [4] = assay: Nematocidal activity against Caenorhabditis elegans assessed as mortality; settings: for LC50 / minimal effective concentration: Caenorhabditis elegans; for minimal effective concentration: read-out: MEC
# Meloidogyne incognita [5] = assay: Nematocidal activity against Meloidogyne incognita (root-knot nematode) assessed as inhibition of penetration in tomato root at 25 ug/ml; parameters: scale not given: the % may be the effect or the level left
# Panagrellus redivivus [6] = assay: Nematocidal activity against Panagrellus redivivus; settings: read-out: ED50 (the source's name)
# Meloidogyne incognita [7] = assay: Nematocidal activity against Meloidogyne incognita (root-knot nematode); settings: read-out: LD50 (the source's name)
# Radopholus similis = assay: Nematocidal activity against Radopholus similis; settings: read-out: LD50 (the source's name)
# Heterodera schachtii = assay: Nematocidal activity against Heterodera schachtii; settings: read-out: LD50 (the source's name)
# Pratylenchus penetrans [8] = assay: Nematocidal activity against Pratylenchus penetrans; settings: read-out: LD50 (the source's name)
# Ditylenchus dipsaci = assay: Nematocidal activity against Ditylenchus dipsaci assessed as motility; settings: read-out: ED50 (the source's name)
# Meloidogyne incognita [9] = assay: Nematocidal activity against Meloidogyne incognita (root-knot nematode) in tomato assessed as reduction of infection at 50 ug/ml; parameters: scale not given: the % may be the effect or the level left
# Pratylenchus penetrans [10] = assay: Nematocidal activity against Pratylenchus penetrans assessed as motility and viability
# Meloidogyne incognita [11] = assay: Nematocidal activity against Meloidogyne incognita (root-knot nematode) assessed as motility and viability
# [12] = read-out: LD50 (the source's name)
compound,measurement,setting,value
CCCCCCCC/C=C\C(=O)O [2-UNDECYLENIC ACID],Activity,Meloidogyne incognita [1],70%
"CCCCC1OC(=O)C2=C1CCC=C2 (centres undefined) [3-N-BUTYL-4,5-DIHYDROPHTHALIDE]",Activity,Caenorhabditis elegans [2],100%
same,Activity,Panagrellus redivivus [3],100%
CC(=O)C#Cc1ccccc1 [4-PHENYL-3-BUTYN-2-ONE],LC50,Caenorhabditis elegans [4]; read-out: LC50,0.3 µg/mL
C=Cc1ccc(O)cc1 [4-VINYLPHENOL],minimal effective concentration,Caenorhabditis elegans [4],300 µg/mL
C=CCS[S+]([O-])CC=C (centres undefined) [ALLICIN],Activity,Meloidogyne incognita [5],50%
C[C@H]1CC[C@@H]2[C@@H](C)[C@H]3[C@H](C[C@H]4[C@@H]5CC=C6C[C@@H](O[C@@H]7O[C@H](CO)[C@H](O[C@@H]8O[C@@H](C)[C@H](O)[C@@H](O)[C@H]8O)[C@H](O)[C@@H]7O[C@@H]7O[C@@H](C)[C@@H](O)[C@@H](O)[C@H]7O)CC[C@]6(C)[C@H]5CC[C@]34C)N2C1 [ALPHA-CHACONINE],EC50,Panagrellus redivivus [6],85 µg/mL
Oc1ccccc1O [CATECHOL],Activity,Caenorhabditis elegans [4],100%
C=CCc1ccc(O)cc1 [CHAVICOL],minimal effective concentration,Caenorhabditis elegans [4],300 µg/mL
COc1c(-c2ccco2)coc(=O)c1C [CLADOBOTRIN],LC50,Meloidogyne incognita [7],100 µg/mL
COc1cc(CC(C)C(C)Cc2ccc(O)c(OC)c2)ccc1O (centres undefined) [DIHYDROGUAIARETIC ACID],LC50,Caenorhabditis elegans [4]; [12],10 µg/mL
C=CCc1ccc(O)c(O)c1 [HYDROXYCHAVICOL],minimal effective concentration,Caenorhabditis elegans [4],300 µg/mL
CCCCC/C=C\C/C=C\CCCCCCCC(=O)O [LINOLEIC ACID],LC50,Caenorhabditis elegans [4]; [12],5 µg/mL
same,LC50,Meloidogyne incognita [7],50 µg/mL
CC[C@H](C)[C@H]1C(=O)NCC(=O)N(C)[C@@H](Cc2c[nH]c3ccccc23)C(=O)N[C@@H](C(C)C)C(=O)N(C)[C@@H]([C@@H](C)CC)C(=O)N(C)[C@@H](C(C)C)C(=O)ON(C)[C@@H](C(C)C)C(=O)N(C)CC(=O)N(C)[C@@H](C(C)C)C(=O)N(C)[C@@H]([C@@H](C)CC)C(=O)N(C)CC(=O)N[C@@H](C(C)C)C(=O)N1C [OMPHALOTIN A] ([Sar][NMeV][NMeI][Sar]V[NMeI]G[NMeW]V[NMeI][NMeV]; linker N-C via X1),LC50,Radopholus similis,> 75 µg/mL
same,LC50,Heterodera schachtii,30 µg/mL
same,LC50,Pratylenchus penetrans [8],25 µg/mL
same,LC50,Meloidogyne incognita [7],0.75 µg/mL
COc1cc(O)cc(/C=C/c2ccccc2)c1 [PINOSYLVIN METHYL ETHER],LC50,Caenorhabditis elegans [4]; [12],4 µg/mL
C=C(C)[C@@H]1CCC2=C[C@@H](O)[C@H](O)[C@@H](C)C2C1 (some centres undefined) [RISHITIN],EC50,Ditylenchus dipsaci,100 µg/mL
C=C/C=C/C#CC1=CC=C(C#CC)SS1 [THIARUBRINE C],Activity,Meloidogyne incognita [9],95%
same,LC50,Pratylenchus penetrans [10],23500 µg/mL
same,LC50,Meloidogyne incognita [11],12400 µg/mL
C[C@H]1CC[C@]2(NC1)O[C@H]1C[C@H]3[C@@H]4CC[C@H]5C[C@@H](O[C@@H]6O[C@H](CO)[C@H](O[C@@H]7O[C@H](CO)[C@@H](O)[C@H](O[C@@H]8OC[C@@H](O)[C@H](O)[C@H]8O)[C@H]7O[C@@H]7O[C@H](CO)[C@@H](O)[C@H](O)[C@H]7O)[C@H](O)[C@H]6O)CC[C@]5(C)[C@H]4CC[C@]3(C)[C@H]1[C@@H]2C [TOMATINE],EC50,Panagrellus redivivus [6],50 µg/mL
